In ChEMBL document CHEMBL3616389, “Identification of Novel D-Aspartate Oxidase Inhibitors by in Silico Screening and Their Functional and Structural Characterization in Vitro” (J Med Chem, 2015):
Calls of active or inactive are those of the source. The calls are words filed in the database; no cut-off is given here.

What was measured:
[1] = target: T1, D-aspartate oxidase (Homo sapiens, UniProt Q99489); test: Inhibition of human recombinant DDO expressed in Escherichia coli BL21(DE3) using D-Asp and D-Ala assessed as 2-oxo acid production after 10 mins by colorimetric assay
T1 sequence (Q99489 whole entry): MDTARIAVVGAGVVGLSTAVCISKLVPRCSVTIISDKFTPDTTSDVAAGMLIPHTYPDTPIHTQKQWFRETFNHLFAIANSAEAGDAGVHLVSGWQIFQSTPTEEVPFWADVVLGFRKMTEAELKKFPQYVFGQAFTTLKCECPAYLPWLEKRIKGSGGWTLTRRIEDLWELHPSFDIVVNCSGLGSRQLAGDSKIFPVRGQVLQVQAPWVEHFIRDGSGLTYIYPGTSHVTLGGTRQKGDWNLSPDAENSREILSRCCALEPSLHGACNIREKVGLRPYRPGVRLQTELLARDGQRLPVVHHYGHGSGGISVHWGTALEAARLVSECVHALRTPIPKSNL

[2] = target: D-amino-acid oxidase (Homo sapiens, UniProt P14920); test: Inhibition of human recombinant DAO expressed in Escherichia coli BL21(DE3) using D-Asp and D-Ala assessed as 2-oxo acid production after 10 mins by colorimetric assay
D-amino-acid oxidase, sequence (P14920 whole entry): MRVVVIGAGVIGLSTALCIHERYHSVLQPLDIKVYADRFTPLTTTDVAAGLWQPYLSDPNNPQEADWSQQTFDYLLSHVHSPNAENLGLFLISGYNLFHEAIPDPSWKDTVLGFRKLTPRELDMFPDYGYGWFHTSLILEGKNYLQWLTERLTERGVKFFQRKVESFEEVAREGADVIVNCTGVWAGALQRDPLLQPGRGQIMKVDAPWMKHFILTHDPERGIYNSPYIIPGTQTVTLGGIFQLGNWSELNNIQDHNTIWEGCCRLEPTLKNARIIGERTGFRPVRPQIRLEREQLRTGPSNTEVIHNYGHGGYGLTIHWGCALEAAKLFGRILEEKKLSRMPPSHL

[3] = target: T2, D-aspartate oxidase (Homo sapiens) (UniProt Q99489); test: Competitive inhibition of human recombinant DDO expressed in Escherichia coli BL21(DE3) using D-Asp by Lineweaver-Burk plot analysis
T2 sequence (whole entry): T1 sequence (Q99489 whole entry)

[4] = target: T3, D-aspartate oxidase (Rattus norvegicus) (UniProt D3ZDM7); test: (§1) Inhibition of rat recombinant DDO using D-Asp
T3 sequence (whole entry): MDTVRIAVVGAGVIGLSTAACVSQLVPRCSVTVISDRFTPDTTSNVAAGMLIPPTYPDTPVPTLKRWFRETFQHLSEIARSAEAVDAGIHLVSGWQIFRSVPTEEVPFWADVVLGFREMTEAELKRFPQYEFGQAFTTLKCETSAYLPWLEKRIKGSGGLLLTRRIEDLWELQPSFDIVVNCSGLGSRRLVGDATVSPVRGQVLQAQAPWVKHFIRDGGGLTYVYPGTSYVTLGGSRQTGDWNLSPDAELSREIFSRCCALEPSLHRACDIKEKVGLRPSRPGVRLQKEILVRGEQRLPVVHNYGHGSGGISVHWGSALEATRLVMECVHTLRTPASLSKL

[5] = target: T4, D-aspartate oxidase (Rattus norvegicus, UniProt D3ZDM7); test: as §1
T4 sequence (D3ZDM7 whole entry): T3 sequence (whole entry)

[6] = target: T5, D-aspartate oxidase (Mus musculus, UniProt Q922Z0); test: Inhibition of mouse recombinant DDO using D-Asp
T5 sequence (Q922Z0 whole entry): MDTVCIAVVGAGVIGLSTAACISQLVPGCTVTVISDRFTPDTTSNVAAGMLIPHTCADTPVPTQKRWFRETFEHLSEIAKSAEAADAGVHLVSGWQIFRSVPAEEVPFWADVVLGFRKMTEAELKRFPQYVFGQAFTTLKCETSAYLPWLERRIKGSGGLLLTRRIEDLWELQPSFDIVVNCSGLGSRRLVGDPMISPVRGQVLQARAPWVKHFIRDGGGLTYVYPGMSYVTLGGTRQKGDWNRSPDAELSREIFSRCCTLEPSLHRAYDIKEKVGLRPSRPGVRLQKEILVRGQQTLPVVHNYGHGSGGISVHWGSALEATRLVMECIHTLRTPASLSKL

[7] = test system: HeLa; test: Effect on L-Asp level in human HeLa cells at 250 uM after 24 hrs by HPLC analysis; type: functional, cell-based
[8] = target: T1, D-aspartate oxidase
[9] = target: T2, D-aspartate oxidase (Homo sapiens); details: HeLa, 250 uM
[10] = target: T2, D-aspartate oxidase (Homo sapiens); details: HeLa, 250 uM; remark: listed apart in the source
[11] = target: T2, D-aspartate oxidase (Homo sapiens); details: HeLa, 250 uM; remark: listed apart in the source
[12] = test system: HeLa; test: Effect on D-Asp level in human HeLa cells at 100 uM after 24 hrs by HPLC analysis; type: functional, cell-based
[13] = test system: HeLa; test: Effect on L-Asp level in human HeLa cells at 100 uM after 24 hrs by HPLC analysis; type: functional, cell-based
[14] = test system: HeLa; test: Effect on D-Asp level in human HeLa cells at 1000 uM after 24 hrs by HPLC analysis; type: functional, cell-based
[15] = test system: HeLa; test: Effect on L-Asp level in human HeLa cells at 1000 uM after 24 hrs by HPLC analysis; type: functional, cell-based
[16] = target: T2, D-aspartate oxidase (Homo sapiens); details: HeLa, 1000 uM
[17] = target: T2, D-aspartate oxidase (Homo sapiens); details: HeLa, 1000 uM; remark: listed apart in the source

IC50 [1] [µM] | IC50 [2] [µM] | Structure (SMILES) | also measured
> 1000 | – | CN(C)c1cncc(C(=O)O)c1 | –
> 10000 | 1050 | O=C(O)c1cc(F)ccc1O | –
> 10000 | 392 | Nc1cccc(C(=O)O)c1 [3-AMINOBENZOIC ACID] | –
> 5000 | > 5000 | Nc1cnccc1C(=O)O | –
> 10000 | – | O=C(O)c1cncc(Br)c1 | –
> 10000 | – | O=C(O)c1cncc(F)c1 [5-FLUORONICOTINIC ACID] | –
> 1000 | > 1000 | Nc1cccnc1C(=O)O | –
> 10000 | – | COc1cncc(C(=O)O)c1 | –
> 10000 | 2480 | O=C(O)c1ncccc1O | –
> 100 | > 100 | Nc1cc(C(=O)O)ccn1 | –
> 10000 | – | O=C(O)c1cncc(C(F)(F)F)c1 | –
2360 | > 2500 | Nc1ccc(C(=O)O)cn1 | –
> 5000 | – | O=C(O)c1cncc(-c2ccccc2)c1 | –
5470 | 1500 | Cc1cncc(C(=O)O)c1 | –
4250 | 1440 | Cc1cc(C(=O)O)c(N)s1 | –
> 5000 | 347 | NC(=O)c1csc(C(=O)O)c1 | –

IC50 [1] [µM] | IC50 [2] [µM] | Structure (SMILES) | also measured
> 100 | > 100 | Nc1ccncc1C(=O)O | –
> 1000 | > 1000 | Nc1ncccc1C(=O)O | –
2780 | 1130 | O=C(O)c1cccnc1 [NIACIN] | –
3540 | > 10000 | CNc1cncc(C(=O)O)c1 | –
> 10000 | – | O=C(O)c1cncc(Cl)c1 | –
> 10000 | – | O=C(O)c1cncc([N+](=O)[O-])c1 | –
> 10000 | – | O=C(O)c1cncc(S(=O)(=O)O)c1 | –
> 10000 | – | O=C(O)c1cncc(C(=O)O)c1 | –
> 100 | > 100 | Nc1ccnc(C(=O)O)c1 | –
> 10000 | 3670 | O=C(O)c1cc(Cl)ccc1O [5-CHLOROSALICYLIC ACID] | –
> 100 | > 100 | Nc1cccc(C(=O)O)n1 | –
> 10000 | > 10000 | Nc1ccc(C(=O)O)nc1 | –
> 10000 | > 10000 | Cc1ccc(C(=O)O)c(O)n1 | –
> 1000 | 1.34 | O=C(O)c1cc2ccccc2n1O | –
879 | > 10000 | O=C(O)CC(=O)O [MALONIC ACID] | inhibition [3]: Active; Ki [5]: 1560 µM; Ki [6]: 1220 µM; Activity [14]: inactive; Activity [15]: inactive; Ki [8]: 153 µM; inhibition [16]: inactive; inhibition [17]: inactive

Structure (SMILES) | IC50 [1] [µM] | IC50 [2] [µM] | also measured
Nc1ccc(Cl)cc1C(=O)O | > 10000 | 3930 | –
O=C(O)c1ccccc1 [BENZOIC ACID] | > 10000 | 134 | –
Nc1cncc(C(=O)O)c1 | 21.9 | > 2500 | inhibition [3]: Active; inhibition [4]: Dose-dependent effect; Ki [5]: 5.89 µM; Ki [6]: 8.69 µM; Activity [7]: inactive; Ki [8]: 3.8 µM; inhibition [9]: Active; inhibition [10]: Active; inhibition [11]: inactive
O=C(O)c1cncc(O)c1 | 3350 | > 10000 | –
Nc1cccnc1 | > 10000 | > 10000 | –
O=C(O)c1cn2cnnc2nc1O | – | > 500 | inhibition [4]: Dose-dependent effect; Ki [5]: 65.9 µM; Ki [6]: 32.6 µM; Activity [12]: inactive; Activity [13]: inactive
